Measured values from patent US20110281944A1, “METHOD OF A RHEIN COMPOUND FOR INHIBITING PANCREATIC ISLET BETA-CELL DYSFUNCTION AND PREVENTING OR TREATING A PANCREATIC ISLET BETA-CELL DYSFUNCTION RELATED DISORDER” (Research Institute of Nephrology of Nanjing PLA, China, priority 2010, published 2011).
“And” between values parts separate entries of the source, which are not always exact repeats. Identical values can stand only once. “Also recorded” adds a separate entry of the source.

Key:
[1] = tested on: pancreatic islets of type 2 diabetic db/db mice; assay: Pancreatic islet isolation and perfusion, first phase insulin secretion; format: ex vivo
Experimental: (§1) The agents and animals used in this example are the same as those used in example 1.
Experimental methods: After 8 weeks of administration, 5 mice are randomly selected from each group for pancreatic islet isolation and perfusion as follows. After anesthesia, the opening of common bile duct at duodenal papilla for each animal is clamped in vivo. 2 ml IV type collagenase is injected at the concentration of 1 mg/ml after performing common bile duct puncture under a stereoscopic microscope. After entering the pancreatic duct reversely to expand the pancreas, the pancreas is rapidly removed. The pancreas is placed in Hank's buffer containing 1 mg/ml collagenase and digested for 40 min to remove the collagens, and then washed under vibration for several times. Pancreatic islets are successfully isolated under microscopy. The pancreatic islets are incubated in a CO2 incubator for 2 hour with 50 islets per group, and then the islets are placed into a specially manufactured constant-temperature perfusion equipment. The […] are perfused with 2.8 mM glucose using a Harvard micro-pump at 0.5 ml/min for glucose starvation perfusion, and after 30 min, perfusion of high glucose (16.7 Mm) is performed at 1 ml/min. […] The first phase insulin secretion and dynamic secretion level of insulin are reflected from the curve of insulin levels measured.

[2] = tested on: pancreatic islet β-cells of db/db mice; assay: Immunohistochemical insulin staining and metrology analysis of pancreatic islets (β-cell amount); format: in vivo; details: administration for 8 weeks
Experimental: as §1
Experimental methods: Immunohistochemical assay. The mice are anaesthetized with phenobarbital sodium, perfused with physiological saline via heart, and fixed with 4% polyoxymethylene. The pancreas are removed, and then placed in 4% polyoxymethylene for 4-6 hours, embedded in paraffin, and sliced into a thickness of 5 um. The slices are dewaxed with xylene, rehydrated with ethanol at different gradient concentrations, and then treated with 0.3% hydrogen peroxide at room temperature for 20 min, so as to block the activity of endogenous peroxidase. The samples are treated with steams at 121° C. under high pressure for 10 min for repairing the antigen. 10% goat serum is added for blocking non-specific antigens. Rabbit-anti-mouse insulin antibody is added, and reacted at 4° C. overnight for 14 hours. […]
Metrology analysis of pancreatic islets: All of the slices are observed with optical microscope E800 (Nikon, Japan), and photographed with a digital camera (Sony, Japan) connected with the microscope. The digital photographs are obtained via Axiovision 4.3 software, and analyzed with Image-Pro Plus 5.0.1. Fifteen pancreatic islet photographs are randomly selected for each mouse, and at least 50 pancreatic islet photographs are analyzed for each group. […]

[3] = tested on: insulin-resistant obese rats; assay: Hyperglycemic clamp in obese rats after treatment with rhein for 4 weeks; format: in vivo, Wistar rats
Excerpt: (§2) Experimental animals: Insulin-resistant obese rats are 4-week in-bred female Wistar rats induced by feeding with high-sugar high-fat feedstuff (20% sugar, 10% lard, 2.5% cholesterol, 1% cholic acid and 66.5% normal feedstuff) for 3 weeks.
(§3) Administration to the experimental animals: Thirty insulin-resistant obese rats are randomly assigned to treatment group and control group. Additional fifteen normal Wistar rats of 7 week old are used as normal control group. The treatment group of insulin-resistant obese rats is treated with rhein (100 mg/Kg, dissolved in 0.1% cellulose sodium) by gavage for continuous 4 weeks. The insulin-resistant obese control group and the normal control group are administrated with 0.1% cellulose sodium by gavage.

[4] = tested on: pancreatic islet β-cells of obese rats; assay: Insulin expression in pancreatic islets of obese rats; format: in vivo, Wistar rats; details: rhein for 4 weeks, vs obese control group
Excerpt: as §2, §3

[5] = tested on: type 2 diabetic db/db mice; assay: Intraperitoneal glucose tolerance test (IPGTT) on db/db mice after treatment with rhein for 8 weeks; format: in vivo; details: rhein 120 mg/Kg gavage 8 weeks
Experimental: Administration to the experimental animals: Thirty diabetic db/db mice of 4 week old are randomly assigned to treatment group and control group. Additional fifteen normal db/m mice of 4 week old are used as normal control group. The treatment group of diabetic db/db mice is treated with rhein (120 mg/Kg, dissolved in 0.1% cellulose sodium) by gavage for continuous 8 weeks. The diabetic control group of db/db mice and the normal control group of db/m mice are administrated 0.1% cellulose sodium by gavage.
Experimental methods: The intraperitoneal glucose tolerance test (IPGTT) is carried out on the mice after administration for 8 weeks. The mice are fasted overnight, and then are administrated by i.p. injection of glucose at 0.5 g/kg body weight. Blood is collected at 0, 30, 60 and 120 min for detecting whole blood glucose level and insulin level and calculating the area under the curve (AUC) of insulin. The area under the curve of insulin during 0˜30 min (AUCINS0.30) is calculated as: (insulin level at 30 min[…]insulin level at 0 min)×15, for evaluating the ability of early phase insulin secretion.

[6] = Oral absorption kinetics and pharmacokinetics of rhein in rats; format: in vivo, Wistar rats
Experimental: Grouping of the animals and experimental procedure: Eighteen Wistar rats (male: female=1:1; body weight=180˜210 g) are randomly divided into 3 groups, 6 animal each group (male 3, female 3). The animals are fastened but supplied with free water for 10 h, and then are administrated ig with 35 mg/kg, 70 mg/kg or 140 mg/kg rhein. Blood samples are collected from carotid artery cannula at 0.033 h, 0.083 h, 0.25 h, 0.5 h, 0.75 h, 1 h, 2 h, 3 h, 4 h, 6 h, 8 h, 12 h and 14 h after administration, and centrifuged. 50 μl plasma is used for HPLC-fluorescence (FLD) analysis. The obtained plasma rhein concentration-time data are used for calculating pharmacokinetic parameters via corresponding pharmacokinetic programmes.

[7] = rhein 100 mg/Kg by gavage for 4 weeks

O=C(O)c1cc(O)c2c(c1)C(=O)c1cccc(O)c1C2=O [rhein]
insulin level after high glucose stimulation relative to basal level ([1]; islets of rhein-treated db/db mice, high glucose 16.7 mmol/L for 1 min): 7 times as high as basal level
first phase insulin secretion ([1]; type 2 diabetic db/db mice, pancreatic islet perfusion): significantly improves the first phase insulin secretion; also recorded: increases the first phase insulin secretion
insulin expression level in the pancreatic islets (insulin staining) ([2]; vs db/db control group): significantly enhances insulin expression level in the pancreatic islets
amount (mass) of pancreatic islet β-cells ([2]; vs untreated db/db): increases the mass of pancreatic islet β-cells; also recorded: significantly reduces the loss of pancreatic islet β-cells
FBG (fasting blood glucose) [3, 7]: 5.3 ± 0.5 mmol/L
SSBG (steady state blood glucose) [3, 7]: 14.9 ± 0.8 mmol/L
GIR (glucose infusion rate) ([3]; rhein 100 mg/Kg by gavage for 4 weeks, Table 1): 32.2 ± 2.9 mg/kg/min
glucose infusion rate (GIR) at steady-state ([3]; treatment with rhein for 4 weeks): 26.1 ± 2.9 mg/kg/min
insulin expression level in the islets [4]: significantly improves the insulin expression level in the islets
AUC-glucose [5]: 1834 ± 151
AUC-insulin [5]: 812 ± 80
AUCINSO-30 (AUC of insulin within 0-30 min) [5]: 63 ± 32
Blood glucose ([5]; 0 min): 7.6 ± 0.7 mmol/L
plasma insulin ([5]; 0 min): 5.3 ± 0.7 µg/L
Blood glucose ([5]; 30 min): 19.5 ± 1.5 mmol/L
plasma insulin ([5]; 30 min): 9.5 ± 1.9 µg/L
Blood glucose ([5]; 60 min): 18.3 ± 2.0 mmol/L
plasma insulin ([5]; 60 min): 6.0 ± 0.7 µg/L
Blood glucose ([5]; 120 min): 10.4 ± 1.1 mmol/L
plasma insulin ([5]; 120 min): 5.9 ± 0.6 µg/L
Plasma rhein concentration ([6]; gavage 35 mg/kg, 0.033 h, individual rats 1-6, 35 mg/kg): 15.34 µg/mL and 19.11 µg/mL and 10.10 µg/mL and 10.54 µg/mL and 24.21 µg/mL and 9.45 µg/mL
Plasma rhein concentration ([6]; gavage 35 mg/kg, 0.033 h, mean (X) of 6 rats): 14.79 µg/mL
Plasma rhein concentration ([6]; gavage 35 mg/kg, 0.083 h, individual rats 1-6, 35 mg/kg): 22.07 µg/mL and 44.52 µg/mL and 22.33 µg/mL and 16.18 µg/mL and 40.94 µg/mL and 19.99 µg/mL
Plasma rhein concentration ([6]; gavage 35 mg/kg, 0.083 h, mean (X) of 6 rats): 27.67 µg/mL
Plasma rhein concentration ([6]; gavage 35 mg/kg, 0.25 h, individual rats 1-6, 35 mg/kg): 27.43 µg/mL and 45.05 µg/mL and 26.00 µg/mL and 26.86 µg/mL and 59.77 µg/mL and 24.59 µg/mL
Plasma rhein concentration ([6]; gavage 35 mg/kg, 0.25 h, mean (X) of 6 rats): 34.95 µg/mL
Plasma rhein concentration ([6]; gavage 35 mg/kg, 0.50 h, individual rats 1-6, 35 mg/kg): 22.01 µg/mL and 22.71 µg/mL and 28.87 µg/mL and 26.88 µg/mL and 55.32 µg/mL and 22.99 µg/mL
Plasma rhein concentration ([6]; gavage 35 mg/kg, 0.50 h, mean (X) of 6 rats): 29.80 µg/mL
Plasma rhein concentration ([6]; gavage 35 mg/kg, 0.75 h, individual rats 1-6, 35 mg/kg): 18.92 µg/mL and 18.72 µg/mL and 35.43 µg/mL and 35.51 µg/mL and 45.07 µg/mL and 15.62 µg/mL
Plasma rhein concentration ([6]; gavage 35 mg/kg, 0.75 h, mean (X) of 6 rats): 28.21 µg/mL
Plasma rhein concentration ([6]; gavage 35 mg/kg, 1.0 h, individual rats 1-6, 35 mg/kg): 19.13 µg/mL and 19.96 µg/mL and 21.75 µg/mL and 27.32 µg/mL and 37.07 µg/mL and 15.78 µg/mL
Plasma rhein concentration ([6]; gavage 35 mg/kg, 1.0 h, mean (X) of 6 rats): 23.50 µg/mL
Plasma rhein concentration ([6]; gavage 35 mg/kg, 2.0 h, individual rats 1-6, 35 mg/kg): 8.25 µg/mL and 4.26 µg/mL and 7.88 µg/mL and 7.44 µg/mL and 7.45 µg/mL and 15.41 µg/mL
Plasma rhein concentration ([6]; gavage 35 mg/kg, 2.0 h, mean (X) of 6 rats): 8.45 µg/mL
Plasma rhein concentration ([6]; gavage 35 mg/kg, 3.0 h, individual rats 1-6, 35 mg/kg): 4.03 µg/mL and 4.23 µg/mL and 4.39 µg/mL and 4.04 µg/mL and 2.99 µg/mL and 4.38 µg/mL
Plasma rhein concentration ([6]; gavage 35 mg/kg, 3.0 h, mean (X) of 6 rats): 4.01 µg/mL
Plasma rhein concentration ([6]; gavage 35 mg/kg, 4.0 h, individual rats 1-6, 35 mg/kg): 3.98 µg/mL and 4.16 µg/mL and 1.70 µg/mL and 3.75 µg/mL and 1.31 µg/mL and 4.91 µg/mL
Plasma rhein concentration ([6]; gavage 35 mg/kg, 4.0 h, mean (X) of 6 rats): 3.30 µg/mL
Plasma rhein concentration ([6]; gavage 35 mg/kg, 6.0 h, individual rats 1-6, 35 mg/kg): 3.08 μg/ml (2×) and 2.69 μg/ml and 2.89 μg/ml and 0.57 μg/ml and 0.86 μg/ml
Plasma rhein concentration ([6]; gavage 35 mg/kg, 6.0 h, mean (X) of 6 rats): 2.19 µg/mL
Plasma rhein concentration ([6]; gavage 35 mg/kg, 8.0 h, individual rats 1-6, 35 mg/kg): 4.99 µg/mL and 0.75 µg/mL and 1.94 µg/mL and 2.05 µg/mL and 1.07 µg/mL and 0.34 µg/mL
Plasma rhein concentration ([6]; gavage 35 mg/kg, 8.0 h, mean (X) of 6 rats): 1.86 µg/mL
Plasma rhein concentration ([6]; gavage 35 mg/kg, 12.0 h, individual rats 1-6, 35 mg/kg): 0.58 μg/ml and 0.18 μg/ml and 1.13 μg/ml and 1.35 μg/ml and ND (Lower than the minimal detectable concentration 0.13 μg/ml) and 0.36 μg/ml
Plasma rhein concentration ([6]; gavage 35 mg/kg, 12.0 h, mean (X) of 6 rats): 0.60 µg/mL
Plasma rhein concentration ([6]; gavage 35 mg/kg, 14.0 h, individual rats 1-6, 35 mg/kg): 0.51 μg/ml and ND (Lower than the minimal detectable concentration 0.13 μg/ml) (3×) and 0.50 μg/ml and 0.56 μg/ml
Plasma rhein concentration ([6]; gavage 35 mg/kg, 14.0 h, mean (X) of 6 rats): 0.35 µg/mL
Plasma rhein concentration ([6]; gavage 70 mg/kg, 1.0 h, individual rats 1-6, 70 mg/kg): 30.42 µg/mL and 40.86 µg/mL and 29.41 µg/mL and 35.89 µg/mL and 20.75 µg/mL and 58.65 µg/mL
Plasma rhein concentration ([6]; gavage 70 mg/kg, 1.0 h, mean (x) of 6 rats): 36.00 µg/mL
Plasma rhein concentration ([6]; gavage 70 mg/kg, 2.0 h, individual rats 1-6, 70 mg/kg): 13.29 µg/mL and 34.33 µg/mL
AUC ([6]; ig 35 mg/kg): 69.52 ± 9.13 µg·h/mL
actually-measured peak time ([6]; ig 35 mg/kg): 0.42 ± 0.26 h
calculated half life ([6]; ig 35 mg/kg): 3.22 ± 1.21 h
peak concentration ([6]; ig 35 mg/kg): 37.96 ± 12.87 µg/mL
AUC ([6]; ig 70 mg/kg): 164.29 ± 44.77 µg·h/mL
actually-measured peak time ([6]; ig 70 mg/kg): 0.50 ± 0.27 h
calculated half life ([6]; ig 70 mg/kg): 3.68 ± 1.42 h
peak concentration ([6]; ig 70 mg/kg): 54.64 ± 11.60 µg/mL
AUC ([6]; ig 140 mg/kg): 237.75 ± 42.81 µg·h/mL
actually-measured peak time ([6]; ig 140 mg/kg): 0.38 ± 0.14 h
calculated half life ([6]; ig 140 mg/kg): 4.30 ± 1.55 h
peak concentration ([6]; ig 140 mg/kg): 67.17 ± 14.62 µg/mL
pharmacokinetics in the tested dosage range (dose linearity) ([6]; ig 35-140 mg/kg): approximately linear
